Results: paper PMC11305387, “AlphaFold accelerated discovery of psychotropic agonists targeting the trace amine–associated receptor 1” (Science Advances, 2024)
≈ marks a conversion by molar mass, not a printed value.

Experiments:
hTAAR1 [1] = target: T1, hTAAR1 (Homo sapiens, UniProt Q96RJ0); test: G protein (mini-Gs) recruitment luminescence complementation assay, agonist mode; format: cell-based
T1 construct: expressed in transfected cells; host or cells: Expi293F
T1 sequence (Q96RJ0 1-339): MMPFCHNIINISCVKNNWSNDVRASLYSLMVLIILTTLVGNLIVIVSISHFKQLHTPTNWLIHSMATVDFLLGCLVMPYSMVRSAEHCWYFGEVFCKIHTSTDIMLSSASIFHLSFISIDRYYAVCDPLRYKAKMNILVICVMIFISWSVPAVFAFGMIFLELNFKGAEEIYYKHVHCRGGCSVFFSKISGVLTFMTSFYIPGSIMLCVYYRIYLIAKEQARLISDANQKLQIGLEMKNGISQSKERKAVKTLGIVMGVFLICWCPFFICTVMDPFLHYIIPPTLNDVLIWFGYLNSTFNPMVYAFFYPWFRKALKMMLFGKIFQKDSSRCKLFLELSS
Experimental: The 62 predicted ligands were purchased from commercial vendors and tested for activity at a concentration of 20 μM in a luminescence complementation–based assay measuring recruitment of mini-Gs to the human TAAR1 ([38]).
To monitor TAAR1 activation by compounds, we used our previously described system. […] Cells were then reseeded in solid white, 96-well plates (Corning) with 90 μl of cell suspension per well. Luminescence was read using a plate reader for 5 min (SPARK 10 M, Tecan) before the addition of compounds to ensure signal stability. Ten microliters of each compound diluted in DPBS was added, and luminescence from each well was read for 10 min, with 100-ms read time per well. The A2AR counter-screen was performed using the same protocol. In these experiments, the hTAAR1 was replaced by a C-terminally SmBiT-tagged hA2AR construct.

5-HT1D receptor = target: T2, 5-HT1D receptor (Homo sapiens, UniProt P28221); test: PRESTO-TANGO β-arrestin recruitment; format: cell-based
T2 construct: TANGO fusion module (own knowledge, Kroeze et al.: C-terminal V2 tail, TEV site and tTA); 1000000068; host or cells: HTLA (HEK293-derived)
T2 sequence (P28221 whole entry, the tested form may be a part): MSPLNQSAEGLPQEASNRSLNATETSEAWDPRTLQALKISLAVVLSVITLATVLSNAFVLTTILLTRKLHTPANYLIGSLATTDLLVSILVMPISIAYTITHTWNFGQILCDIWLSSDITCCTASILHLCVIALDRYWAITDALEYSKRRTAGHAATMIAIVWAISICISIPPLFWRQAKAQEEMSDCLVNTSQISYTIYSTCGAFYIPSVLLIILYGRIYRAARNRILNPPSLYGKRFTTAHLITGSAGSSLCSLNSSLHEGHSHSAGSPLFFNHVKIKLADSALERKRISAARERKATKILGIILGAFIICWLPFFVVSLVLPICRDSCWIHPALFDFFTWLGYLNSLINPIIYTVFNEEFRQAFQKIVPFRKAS
Experimental: (§1) Assessment of receptor activation by compounds at all human aminergic receptors were carried out using a modified version of the PRESTO-TANGO method. […] The plate was spun down, and 5 μl of a 1:25 dilution (in DPBS) of polyethylenimine (PEI) derivative (Transporter 5, Polysciences) was added (1:4 cDNA to PEI ratio) and incubated for 20 min at room temperature (RT). […] Luminescence signal was detected using a plate-reader (SPARK, Tecan) with 100-ms integration time and a 100-ms delay between well reads.

[2] = system: TAAR1-WT and TAAR1-KO mice; test: Core-body temperature (CBT) measurement; format: in vivo
Experimental: Core temperature was determined by a rectal thermoprobe. Compounds or vehicle was administered intraperitoneally. A basal measurement was performed immediately before injection. Measurements were repeated every 30 min for 2 hours. Mean changes in CBT were calculated by subtracting the value from vehicle treated group at the corresponding time point. A washout of 1 week between different doses of compound 65 was applied, and mice were injected starting with the lowest dose first.

hTAAR1 [3] = target: T1, hTAAR1; test: cAMP accumulation assay (GloSensor-22F); format: cell-based
Experimental: cAMP accumulation was assessed using a previously described system with some modifications ([45]). hTAAR1 and GloSensor-22F were transected with a 1:1 gene dose (1 μg/ml) in Expi293F cells for 48 hours. Cells were then resuspended in assay buffer [Hanks’ balanced salt solution (HBSS), 10 mM Hepes, 2 mM […] (Promega), and 300 μM 3-isobutyl-1-methylxanthine (Sigma-Aldrich)] and seeded with 25,000 cells per well to a white 384-well plate (CulturPlate, PerkinElmer) and incubated for 1 hour in the dark at RT. After a baseline read, compounds were added, and the plate was read for a further 1 hour (SPARK 10 M, Tecan) with 10-min intervals. The final read at 1 hour was used for analysis.

D2 receptor = target: T3, D2 receptor (Homo sapiens, UniProt P14416); test: cell-based; format: cell-based
T3 construct: TANGO fusion module (own knowledge, Kroeze et al.: C-terminal V2 tail, TEV site and tTA); 1000000068; host or cells: HTLA (HEK293-derived)
T3 sequence (P14416 whole entry, the tested form may be a part): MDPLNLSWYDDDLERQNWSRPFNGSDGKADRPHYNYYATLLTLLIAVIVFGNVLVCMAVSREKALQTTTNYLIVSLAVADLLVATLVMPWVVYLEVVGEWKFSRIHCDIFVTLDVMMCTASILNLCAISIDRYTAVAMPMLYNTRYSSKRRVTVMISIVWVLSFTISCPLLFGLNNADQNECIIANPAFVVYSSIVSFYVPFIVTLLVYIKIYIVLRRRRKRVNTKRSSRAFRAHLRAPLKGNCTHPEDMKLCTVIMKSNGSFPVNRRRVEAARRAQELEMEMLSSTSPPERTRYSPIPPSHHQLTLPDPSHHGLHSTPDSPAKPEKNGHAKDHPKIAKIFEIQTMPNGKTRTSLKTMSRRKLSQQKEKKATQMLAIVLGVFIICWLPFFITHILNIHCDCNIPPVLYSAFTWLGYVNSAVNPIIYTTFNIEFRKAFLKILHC
Experimental: as §1

Thermodynamic solubility = format: physicochemical; conditions: 100 mM potassium phosphate buffer, aqueous buffer, thermodynamic from solid, 100 mM KPO4-buffer pH 7.4, 37°C
Experimental: Thermodynamic solubility assay used solid form of compound 65. Solid test compound (~2 to 3 mg) was weighed in a glass high-performance liquid chromatography (HPLC) vial, and 100 mM KPO4-buffer (pH 7.4) was added to give a theoretical max concentration if everything is dissolved of ~5 to 6 mg/ml. The vial was incubated at 900 rpm and 37°C in a rotational shaker for 24 hours. After the incubation, an aliquot (200 μl) was transferred to a glass insert and centrifuged at 10,000g and 37°C for 20 min to separate any solid material from the solution. The supernatant was transferred to a new HPLC vial and analyzed by LC-MS/MS.

[4] = Metabolic stability in liver microsomes; conditions: mouse liver microsomes, 1 μM

Structure (SMILES): CC1=C(c2ccco2)CNCC1 [Compound 65]
- EC50 (hTAAR1 [1]; TAAR1, G protein recruitment assay, read-out: pEC50 (converted)): 25.1 nM
- fold more potent than Ulotaront (hTAAR1 [1]; TAAR1 G protein recruitment): > 25 fold
- EC50 (5-HT1D receptor): > 1000 nM
- Emax (5-HT1D receptor): 75%
- agonism at the 5-HT1D receptor (5-HT1D receptor; panel screen): agonism
- effect on CBT ([2]; TAAR1-KO mice): no decrease in CBT was observed
- maximal reduction of CBT, 5 mg/kg versus 1 mg/kg ([2]; TAAR1-WT mice): did not observe a significant increase in the maximal reduction of CBT
- time of peak CBT reduction after injection ([2]; TAAR1-WT mice, 0.5 and 1 mg/kg): 30 min
- time to return of CBT to baseline ([2]; TAAR1-WT mice, 0.5 and 1 mg/kg): 2 h
- effect on CBT ([2]; TAAR1-WT mice, 0.5 and 1 mg/kg i.p.): reduction of CBT
- extent of CBT reduction ([2]; WT mice, 1 mg/kg, 30 and 60 min after injection): ~ 1 °C
- EC50 (hTAAR1 [3]): 0.398 nM
- EC50 (D2 receptor; concentration-response curves): > 1000 nM
- Emax (D2 receptor; concentration-response curves): 59%
- agonism at the D2 receptor (D2 receptor; panel screen): agonism
- solubility at 24 h (Thermodynamic solubility): 50 mM (≈ 8160 µg/mL)
- intrinsic clearance CLint [4]: 7 μl/min per mg
